Reference: patent publication US20040110963A1, “Novel hydrazones” (priority 2001, published 2004)
Converted amounts (≈) assume the structure as drawn.

Columns and labels:
[1] = target: enzyme I of the bacterial phosphotransferase system (PTS) (Escherichia coli, UniProt P08839); test: Assay for Enzyme I dependent PEP: peptide phosphotransferase activity (LDH-coupled, NADH read-out at 340 nm); type: biochemical; settings: enzyme I 0.75 μM, 0.8 mM PEP, pH 7.5; read-out: Inhibition of PTS (IC50 in μM)
From the text: The determination of activity of a compound of the present invention in the PTS may be summarized as follows:
Assay for Enzyme I Dependent PEP:
Peptide Phosphotransferase Activity. [formula]
To find inhibitors of Enzyme I of the PTS by high throughput screening, an in vitro assay based on spectrophotometric read out at 340 nm has been set up. The assay comprises of three major components, purified enzyme I in catalytic amounts, Phosphoenol Pyruvate (PEP) as the phosphoryl donor substrate and purified HPr as the phosphoryl acceptor substrate.
The assay couples the formation of pyruvate formed from PEP to lactate, catalyzed by lactate dehydrogenase. The disappearance of NADH, cofactor required by lactate dehydrogenase, is determined spectrophotometerically at 340 nm. The assay is done in a U-shaped microtiter plate format, and quantitation is done using microplate absorbance reader.
100 μl reaction mixture contained 0.8 mM PEP, 0.2 mM NADH, 3 μg lactate dehydrogenase (Boehringer Mannheim), 50 mM KPi pH=7.5, 2.5 mM dithiothreitol, 2.5 mM NaF, 5 mM MgCI2, and between 50 and 100 μM of the compound. The reaction is started by the addition of enzyme I (final concentration 0.75 μM). In a control experiment the compound is replaced by DMSO.

[2] = tested on: Staphylococcus aureus ATCC25923; test: In vitro antibacterial activity (MIC, NCCLS M7-A5 dilution susceptibility test); type: cell-based; settings: for MIC: read-out: Minimum Inhibitory Concentration (MIC) Staphylococcus aureus ATCC25923
Method: (§1) Antimicrobial susceptibility testing was performed in accordance with the National Committee for Clinical Laboratory Standards (NCCLS) procedure [M7-A5, 2001: Methods for Dilution Antimicrobial Susceptibility Tests for Bacteria That Grow Aerobically; Approved Standard-Fifth Edition American National Standard].

[3] = tested on: Escherichia coli DC2; test: as above; type: cell-based; settings: for MIC: read-out: Minimum Inhibitory Concentration (MIC) Escherichia coli DC2
Method: as §1

Row | Molecule | IC50 [1] [µM] | MIC [2] [µg/mL] | MIC [3] [µg/mL] | also measured
1 | 4-chloro-N′-(2-hydroxy-3-chloro-benzylidene)-benzohydrazide [Example 36] | 100 | – | – | –
2 | O=C(NN=Cc1cc(O)ccc1O)c1ccccc1 [Example 1, N′-(2,5-Dihydroxy-benzylidene)-benzohydrazide] | 15 | 64 (≈ 250 µM) | 128 (≈ 499 µM) | –
3 | O=C(Cc1c[nH]c2ccccc12)NN=Cc1ccccc1O [Example 2, N′-(2-Hydroxy-benzylidene)-2-(1H-indol-3-yl)-acetohydrazide] | 50 | – | – | –
4 | O=C(NN=Cc1cc(O)ccc1O)c1cccc2ccccc12 [Example 3, N′-(2,5-Dihydroxy-benzylidene)-naphthalene-1-carbohydrazide] | 6 | – | – | –
5 | COc1cc(C(=O)NN=Cc2ccc(O)c(O)c2O)cc(OC)c1OC [Example 4, 3,4,5-Trimethoxy-N′-(2,3,4-trihydroxy-benzylidene)-benzohydrazide] | 15 | 128 (≈ 353 µM) | 128 (≈ 353 µM) | –
6 | Nc1ccc(Cl)cc1C(=O)NN=Cc1ccccc1O [Example 5, 2-Amino-5-chloro-N′-(2-hydroxy-benzylidene)-benzohydrazide] | 6 | – | – | –
7 | O=C(NN=Cc1ccc(O)cc1O)c1cccc(C(F)(F)F)c1 [Example 6, 3-Trifluoromethyl-N′-(2,4-dihydroxy-benzylidene)-benzohydrazide] | 10 | > 128 | 32 (≈ 98.7 µM) | –
8 | COc1cccc(C(=O)NN=C(C)c2ccccc2O)c1 [Example 7, 3-Methoxy-N′-[1-(2-hydroxy-phenyl)-ethylidene]-benzohydrazide] | 8 | – | – | –
9 | COc1cccc(C(=O)NN=Cc2cc(O)ccc2O)c1 [Example 8, 3-Methoxy-N′-(2,5-dihydroxy-benzylidene)-benzohydrazide] | 15 | – | – | –
10 | O=C(NN=Cc1ccc(O)c(O)c1O)c1ccc(Cl)c(Cl)c1 [Example 9, 3,4-Dichloro-N′-(2,3,4-trihydroxy-benzylidene)-benzohydrazide] | 75 | 8 (≈ 23.5 µM) | 32 (≈ 93.8 µM) | –
11 | O=C(NN=Cc1cc(O)ccc1O)c1ccc(Cl)cc1 [Example 10, 4-Chloro-N′-(2,5-dihydroxy-benzylidene)-benzohydrazide] | 8 | 128 (≈ 440 µM) | > 128 | –
12 | O=C(NN=Cc1cc(O)ccc1O)c1ccc(O)cc1 [Example 11, 4-Hydroxy-N′-(2,5-dihydroxy-benzylidene)-benzohydrazide] | 0.5 | – | – | –
13 | O=C(NN=Cc1cc(O)ccc1O)c1ccc(Cl)c(Cl)c1 [Example 12, 3,4-Dichloro-N′-(2,5-dihydroxy-benzylidene)-benzohydrazide] | 0.7 | – | – | –
14 | O=C(NN=Cc1cc(O)ccc1O)c1cccc(Cl)c1 [Example 13, 3-Chloro-N′-(2,5-dihydroxy-benzylidene)-benzohydrazide] | 0.7 | – | – | –
15 | COc1cc(C(=O)NN=Cc2cc(Cl)ccc2O)ccc1O [Example 14, 4-Hydroxy-3-methoxy-N′-(5-chloro-2-hydroxy-benzylidene)-benzohydrazide] | 25 | 128 (≈ 399 µM) | 128 (≈ 399 µM) | –
16 | CC(=NNC(=O)c1ccccc1)c1cc(O)ccc1O [Example 15, N′-[1-(2,5-Dihydroxy-phenyl)-ethylidene]-benzohydrazide] | 6 | – | – | –
17 | COc1cc(C(=O)NN=Cc2cc(O)ccc2O)ccc1O [Example 16, N′-(2,5-Dihydroxy-benzylidene)-4-hydroxy-3-methoxy-benzohydrazide] | 4 | – | – | –
18 | Cc1ccc(O)c(C=NNC(=O)c2ccccc2)c1 [Example 17, N′-(2-Hydroxy-5-methyl-benzylidene)-benzohydrazide] | 6 | – | – | –
19 | CNc1ccccc1C(=O)NN=Cc1cc(Cl)ccc1O [Example 18, 2-Methylamino-N′-(5-chloro-2-hydroxy-benzylidene)-benzohydrazide] | 4 | – | – | –
20 | CNc1ccccc1C(=O)NN=Cc1cc(O)ccc1O [Example 19, 2-Methylamino-N′-(2,5-dihydroxy-benzylidene)-benzohydrazide] | 2 | – | – | –
21 | Cc1cccc(C(=O)NN=Cc2cc(Cl)ccc2O)c1 [Example 20, 3-Methyl-N′-(5-chloro-2-hydroxy-benzylidene)-benzohydrazide] | 4 | – | – | –
22 | O=C(NN=Cc1cc(Cl)ccc1O)c1cccc(C(F)(F)F)c1 [Example 21, 3-Trifluoromethyl-N′-(5-chloro-2-hydroxy-benzylidene)-benzohydrazide] | 12 | 16 (≈ 46.7 µM) | > 128 | –

Row | Molecule | IC50 [1] [µM] | MIC [2] [µg/mL] | MIC [3] [µg/mL] | also measured
23 | CNc1ccccc1C(=O)NN=C(C)c1ccccc1O [Example 22, 2-methylamino-N′-[1-(2-hydroxy-phenyl)-ethylidene]-benzohydrazide] | 2 | – | – | –
24 | CC(=O)Nc1ccccc1C(C)=NNC(=O)c1ccccc1 [Example 23, N-[2-[1-(2-Benzoyl-hydrazono)-ethyl]-phenyl]-acetamide] | 250 | – | – | –
25 | CC(=NNC(=O)c1ccc(Cl)cc1)c1ccccc1N [Example 24, 4-Chloro-N′-[1-(2-amino-phenyl)-ethylidene]-benzohydrazide] | 0.8 | – | – | –
26 | COc1cccc(C(=O)NN=C(C)c2ccccc2N)c1 [Example 25, 3-Methoxy-N′-[1-(2-Amino-phenyl)-ethylidene]-benzohydrazide] | 20 | – | – | –
27 | O=C(NN=Cc1cccc(O)c1O)c1ccccc1 [Example 26, N′-(2,3-Dihydroxy-benzylidene)-benzohydrazide] | 50 | – | – | –
28 | COc1cccc(C(=O)NN=Cc2ccccc2O)c1 [Example 27, 3-Methoxy-N′-(2-hydroxy-benzylidene)-benzohydrazide] | 7 | – | – | –
29 | O=C(NN=Cc1ccc(O)c(O)c1O)c1ccccc1 [Example 28, N′-(2,3,4-Trihydroxy-benzylidene)-benzohydrazide] | 3 | – | – | –
30 | O=C(NN=Cc1ccccc1O)c1ccc(Br)cc1 [Example 31, 4-Bromo-N′-(2-hydroxy-benzylidene)-benzohydrazide] | 75 | – | – | –
31 | O=C(NN=Cc1ccccc1O)c1cccc(C(F)(F)F)c1 [Example 32, 3-Trifluoromethyl-N′-(2-hydroxy-benzylidene)-benzohydrazide] | 7 | – | – | –
32 | Cc1cccc(C(=O)NN=Cc2cc(O)ccc2O)c1 [Example 33, 3-Methyl-N′-(2,5-dihydroxy-benzylidene)-benzohydrazide] | 2 | – | – | –
33 | O=C(NN=Cc1cc(O)ccc1O)c1cccc(C(F)(F)F)c1 [Example 34, 3-Trifluoromethyl-N′-(2,5-dihydroxy-benzylidene)-benzohydrazide] | 15 | – | – | –
34 | CC(=NNC(=O)c1ccc(O)cc1)c1cc(O)ccc1O [Example 35, 4-Hydroxy-N′-[1-(2,5-dihydroxy-phenyl)-ethylidene]-benzohydrazide] | 1.75 | – | – | –
35 | O=C(NN=Cc1ccc(O)cc1O)c1ccc(Cl)cc1 [Example 37, 4-Chloro-N′-(2,4-dihydroxy-benzylidene)-benzohydrazide] | 20 | – | – | –
36 | O=C(NN=Cc1cc(Cl)ccc1O)c1cccc(Cl)c1 [Example 38, 3-Chloro-N′-(2-hydroxy-5-chloro-benzylidene)-benzohydrazide] | 75 | – | – | –
37 | O=C(NN=Cc1cc(O)c(O)cc1O)c1ccc(Cl)cc1 [Example 47, 4-Chloro-N′-(2,4,5-trihydroxy-benzylidene)-benzohydrazide] | – | 8 (≈ 26.1 µM) | 64 (≈ 209 µM) | –
38 | O=C(NN=Cc1cc(Cl)cc(Cl)c1O)c1ccccc1 [Example 48, N′-(2-Hydroxy-3,5-dichloro-benzylidene)-benzohydrazide] | – | 128 (≈ 414 µM) | > 128 | –
39 | O=C(NN=Cc1ccc(O)c(O)c1O)c1cccc(Cl)c1 [Example 49, 3-Chloro-N′-(2,3,4-trihydroxy-benzylidene)-benzohydrazide] | – | 16 (≈ 52.2 µM) | 64 (≈ 209 µM) | –
40 | O=C(NN=Cc1cc(O)c(O)cc1O)c1cccc(C(F)(F)F)c1 [Example 50, 3-Trifluoromethyl-N′-(2,4,5-trihydroxy-benzylidene)-benzohydrazide] | – | 32 (≈ 94 µM) | > 128 | –
41 | O=C(NN=Cc1ccc(O)c(O)c1O)c1cccc(C(F)(F)F)c1 [Example 51, 3-Trifluoromethyl-N′-(2,3,4-trihydroxy-benzylidene)-benzohydrazide] | – | 8 (≈ 23.5 µM) | 64 (≈ 188 µM) | –
42 | CC(=NNC(=O)c1ccc(Cl)c(Cl)c1)c1ccc(O)c(O)c1O [Example 52, 3,4-Dichloro-N′-[1-(2,3,4-dihydroxy-phenyl)-ethylidene]-benzohydrazide] | – | – | – | Minimum Inhibitory Concentration (MIC) Staphylococcus aureus ATCC25923 [2]: 4 micrograms/ml; Minimum Inhibitory Concentration (MIC) Escherichia coli DC2 [3]: 64 micrograms/ml
43 | CN(N=Cc1ccc(O)c(O)c1O)C(=O)c1ccc(Cl)c(Cl)c1 [Example 53, 3,4-Dichloro-N-methyl-N′-(2,3,4-trihydroxy-benzylidene)-benzohydrazide] | – | 128 (≈ 360 µM) | > 128 | –
